What all share (format): functional, Homo sapiens
Assay [1] concerns Caco-2. The assay can be described thus: Inhibition of irreversible increase in transepithelial electrical resistance across Caco-2 cell monolayer by the compound in the presence of 5 mM of famotidine.
In assay [2] the test system is Caco-2. The assay can be described thus: Ability to increase the transepithelial electrical resistance across Caco-2 cell monolayer at 200 uM concentration.
Assay [3] relates to Caco-2. The assay can be described thus: Inhibition of apical to basolateral transport of Ranitidine (100 uM) across Caco-2 cell monolayer in the presence of 300 uM of compound. (In general: Passage across Caco-2 layers is used to estimate intestinal permeability.)
Assay [4] concerns Caco-2. The experiment in a line: Inhibition of Ranitidine transport across Caco-2 cell monolayer by the compound (200 uM) After photoactivation at 254 nM.

As usually defined, the Inhibition is the change of the read-out against control, counted positive when it falls. In the case of `N=C(N)Nc1nc(CSCCC(=N)NS(N)(=O)=O)cs1.[N-]=[N+]=Nc1ccc(C(=O)NCCSCc2csc(NC(=N)N)n2)cc1`, in the assay on Caco-2 [1], the Inhibition amounted to 35%.
For `[N-]=[N+]=Nc1ccc(C(=O)NCCSCc2csc(NC(=N)N)n2)cc1`, the Increase in the assay with Caco-2 [2] came to 120%.
Consider `CNC(=C[N+](=O)[O-])NCCSCc1ccc(CN(C)C)o1.[N-]=[N+]=Nc1ccc(C(=O)NCCSCc2csc(NC(=N)N)n2)cc1`, for which the Inhibition stood at 40% with Caco-2 [3] and 35% in the assay with Caco-2 [4].

Values taken from ChEMBL document CHEMBL1148315, “Photoaffinity labeling of the anionic sites in Caco-2 cells mediating saturable transport of hydrophilic cations ranitidine and famotidine” (2004).
